Measured values reported in PubChem BioAssay (NCI).
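Each compound was tested at five concentrations against cells in 96-well plates for 48 hours. Here, GI50 denotes the concentration required for 50% inhibition of growth. TGI: total growth inhibition.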

Key:
Experiment in all cases: DTP human tumour cell line panel, 48 h
MDA-MB-231 breast = test system: MDA-MB-231 breast
MDA-N = test system: MDA-N
XF 498 CNS = test system: XF 498 CNS
SNB-78 CNS = test system: SNB-78 CNS
DLD-1 colon = test system: DLD-1 colon
M19-MEL melanoma = test system: M19-MEL melanoma
DMS 114 small cell lung = test system: DMS 114 small cell lung
HOP-18 NSCLC = test system: HOP-18 NSCLC

SMILES: O=C1OC(=O)C2C1C1(c3ccccc3)C(c3ccccc3)=C(c3ccccc3)C2(c2ccccc2)S1=O (centres undefined)
- GI50 (MDA-MB-231 breast): > 100 µM
- TGI (MDA-MB-231 breast): > 100 µM

SMILES: O=C(Nc1ccc(Cl)cc1)c1cc2ccccc2cc1O
- GI50 (MDA-MB-231 breast): 5.83 µM
- TGI (MDA-MB-231 breast): > 100 µM

SMILES: O=C(NC(=S)Nc1ccc(Cl)cc1)c1ccccc1
- GI50 (MDA-MB-231 breast): > 51.6 µM
- TGI (MDA-MB-231 breast): > 100 µM

SMILES: CC[N+](CC)(CC)CCCn1c2c(c3ccccc3c1=O)C(=O)c1ccccc1-2
- GI50 (MDA-MB-231 breast): 17.6 µM
- TGI (MDA-MB-231 breast): 84.2 µM

SMILES: Cc1cc(S(=O)(=O)Nc2nnc(-c3ccccc3)c(-c3ccccc3)n2)c(SCc2ccccc2)cc1Cl
- GI50 (MDA-MB-231 breast): 20.2 µM
- TGI (MDA-MB-231 breast): 41.9 µM

SMILES: O=C(NOCC1CC1)c1ccc(F)c(F)c1Nc1ccc(I)cc1Cl
- GI50 (MDA-MB-231 breast): 0.672 µM
- TGI (MDA-MB-231 breast): 14.7 µM

SMILES: C[C@H]1CCC/C=C/[C@@H]2C[C@H](O)C[C@H]2[C@H](O)[C@@H](S(=O)CCN(C)C)CC(=O)O1 (some centres undefined)
- GI50 (MDA-N): 0.228 µM
- TGI (MDA-N): > 100 µM
- GI50 (MDA-MB-231 breast): 0.114 µM
- TGI (MDA-MB-231 breast): 0.458 µM

SMILES: COC(=O)c1ccc(N=NN(C)CO)cc1
- TGI (XF 498 CNS): 9.97 µM
- TGI (SNB-78 CNS): > 100 µM
- TGI (DLD-1 colon): > 100 µM
- TGI (M19-MEL melanoma): > 100 µM
- TGI (DMS 114 small cell lung): > 100 µM

SMILES: C=C(CN1CCc2ccccc2C1)c1ccc(C(=O)Nc2ccc(N)cc2)cc1
- GI50 (MDA-MB-231 breast): 20.5 µM
- TGI (MDA-MB-231 breast): > 100 µM

SMILES: CC(=O)Nc1ccc(C2[C@H]3C(=O)N(c4ccc(Cc5ccc(N6C(=O)[C@@H]7ON(c8ccccc8)C(c8ccc(NC(C)=O)cc8)[C@@H]7C6=O)cc5)cc4)C(=O)[C@H]3ON2c2ccccc2)cc1 (some centres undefined)
- TGI (SNB-78 CNS): > 100 µM
- TGI (DLD-1 colon): > 100 µM
- TGI (HOP-18 NSCLC): > 100 µM
- TGI (M19-MEL melanoma): > 100 µM
- TGI (DMS 114 small cell lung): > 100 µM

SMILES: Cc1nc2cccc(NCc3ccc(C(=O)NO)cc3)c2c(=O)n1-c1ccccc1
- GI50 (MDA-MB-231 breast): 2.5 µM
- TGI (MDA-MB-231 breast): 6.79 µM

SMILES: CN(C)CCCNC(=O)c1cc(NC(=O)c2cc(NC(=O)c3cc(NC(=O)CCc4c[nH]c5ccccc45)cn3C)cn2C)cn1C
- GI50 (MDA-MB-231 breast): > 100 µM
- TGI (MDA-MB-231 breast): > 100 µM

SMILES: S=C(Nc1ccc(Cl)cc1)Nc1ccc(-c2nc3ccccc3[nH]2)cc1
- GI50 (MDA-MB-231 breast): 3.14 µM
- TGI (MDA-MB-231 breast): 12.8 µM

SMILES: COC(=O)C1=C(O)C(O)=C(C(=O)OC)C1
- TGI (SNB-78 CNS): > 100 µM
- TGI (DLD-1 colon): > 100 µM
- TGI (HOP-18 NSCLC): > 100 µM
- TGI (M19-MEL melanoma): > 100 µM
- TGI (DMS 114 small cell lung): > 100 µM

SMILES: COc1cc(/C=C/C(=O)c2ccc(Cl)cc2)ccc1OS(=O)(=O)c1ccc(C)cc1
- GI50 (MDA-MB-231 breast): 9.02 µM
- TGI (MDA-MB-231 breast): 28 µM

SMILES: O=C1C=Cc2ccccc2/C1=C/c1[nH]c(=O)[nH]c1O
- GI50 (MDA-MB-231 breast): 13.2 µM
- TGI (MDA-MB-231 breast): 84.3 µM

SMILES: O=C(Oc1ccc(CCl)cc1)c1ccccc1
- GI50 (MDA-MB-231 breast): 0.149 µM
- TGI (MDA-MB-231 breast): 0.311 µM

SMILES: O=C(CCCn1ccnc1[N+](=O)[O-])NCCn1ccnc1
- TGI (MDA-MB-231 breast): > 100 µM

SMILES: COC(=O)C(Nc1ccc(OC)cc1)c1ccccc1 (centres undefined)
- TGI (MDA-N): > 100 µM

SMILES: O=C(C(Br)Br)C(Br)C(Br)c1ccccc1 (centres undefined)
- GI50 (MDA-MB-231 breast): 5.4 µM
- TGI (MDA-MB-231 breast): 20.6 µM

SMILES: CS(=O)c1ccc(COP(N)(=O)N(CCCl)CCCl)cc1 (centres undefined)
- TGI (XF 498 CNS): > 100 µM
- TGI (SNB-78 CNS): > 100 µM
- TGI (DLD-1 colon): > 100 µM
- TGI (M19-MEL melanoma): > 100 µM
- TGI (DMS 114 small cell lung): > 100 µM

SMILES: COc1ccc(/C=C2/C[N+](C)(C)C/C(=C/c3ccc(OC)cc3)C2=O)cc1
- TGI (XF 498 CNS): > 100 µM
- TGI (SNB-78 CNS): > 100 µM
- TGI (DLD-1 colon): > 100 µM
- TGI (HOP-18 NSCLC): > 100 µM
- TGI (M19-MEL melanoma): 69.4 µM
- TGI (DMS 114 small cell lung): > 69.3 µM

SMILES: O=C1OC2(c3ccccc3Oc3ccccc32)c2ccccc21
- TGI (SNB-78 CNS): > 100 µM
- TGI (DLD-1 colon): > 100 µM
- TGI (HOP-18 NSCLC): > 100 µM
- TGI (M19-MEL melanoma): > 100 µM
- TGI (DMS 114 small cell lung): > 100 µM

SMILES: [N-]=[N+]=NC1C(Br)C(=O)NC(=O)N1[C@H]1C[C@H](O)[C@@H](CO)O1 (some centres undefined)
- TGI (XF 498 CNS): > 100 µM
- TGI (SNB-78 CNS): > 100 µM
- TGI (DLD-1 colon): > 100 µM
- GI50 (M19-MEL melanoma): 91.5 µM
- TGI (M19-MEL melanoma): > 100 µM
- GI50 (DMS 114 small cell lung): 90.9 µM
- TGI (DMS 114 small cell lung): > 100 µM

SMILES: CCN(CC)CCCCCCCNc1c2ccc(Cl)cc2nc2ccc(OC)cc12
- GI50 (MDA-MB-231 breast): 1.48 µM
- TGI (MDA-MB-231 breast): 3.86 µM

SMILES: COc1c(O)ccc2c1CN1CCc3cc4c(cc3C1C2)OCO4 (centres undefined)
- TGI (MDA-N): > 80.8 µM
- TGI (MDA-MB-231 breast): > 100 µM

SMILES: O=C1C(=O)c2ccccc2C(O)=C1C(CCc1ccccc1)C1=C(O)c2ccccc2C(=O)C1=O
- TGI (MDA-N): 34.3 µM
- TGI (MDA-MB-231 breast): > 100 µM

SMILES: C/C=C(\C)C(=O)O[C@H]1C=CC(=O)O[C@H]1CNC(=O)[C@H](C)O
- GI50 (MDA-MB-231 breast): 19.1 µM
- TGI (MDA-MB-231 breast): 36.3 µM

SMILES: CCOC(=O)Oc1c(OC)cc(C(=O)O[C@@H]2C[C@@H]3CN4CCc5c([nH]c6cc(OC)ccc56)[C@H]4C[C@@H]3[C@H](C(=O)OC)[C@H]2OC)cc1OC
- GI50 (MDA-MB-231 breast): 2.56 µM
- TGI (MDA-MB-231 breast): 19.6 µM

SMILES: COc1ccc2[nH]c(Cl)c(/C=C3/C(=O)N(C)c4ccccc43)c2c1
- GI50 (MDA-MB-231 breast): 36.5 µM
- TGI (MDA-MB-231 breast): > 100 µM
